# Results from US7855290B2, “Pyridine derivatives and pyrimidine derivatives (3)” (Eisai R&D Management Co., Ltd., priority 2005, dated 2010).
# Target: T1, HGFR (Homo sapiens, UniProt P08581)
# T1 construct: endogenous in cells; host or cells: MKN-45 human gastric cancer cells
# Assay: Inhibitory activity against the HGFR autophosphorylation using ELISA (MKN-45 cells)
# Assay type: cell-based
# Details: 1 hr with test substance
# Method: Human gastric cancer cells (MKN-45) were suspended in a 1% FBS-containing RPMI1640 medium (purchased from Sigma). The cell suspension (1×10^5 cells/ml) was put in a 96-well plate for cell culture (purchased from NUNC, Production No. 167008) at 0.1 ml/well, and then cultured in a 5% CO2 incubator (37° C.) overnight. After the culture, from each well was removed the supernatant, followed by adding 0.05 ml of a 1% FBS-containing RPMI1640 medium. Then, the well was supplied with 0.05 ml of the test substance dissolved in dimethyl sulfoxide (diluted with a 1% FBS-containing RPMI1640 medium), followed by culturing in a 5% CO2 incubator (37° C.) for 1 hr. From each well was removed the supernatant, and each well was washed with 150 μl of PBS, followed by adding 100 μl of a lysis buffer (50 mM Hepes (pH 7.4), 150 mM NaCl, 10% (v/v) glycerol, 1% Triton X-100, 1.5 mM MgCl2, 1 mM EDTA (pH 8.0), 100 mM NaF, 1 mM PMSF, 10 μg/ml Aprotinin, 50 μg/ml Leupeptin, 1 μg/ml Pepstatin A and 1 mM Na3VO4). The plate was shaken at 4° C. for 1 hr to prepare the cell extract.
# To a 96-well plate for ELISA (purchased from COSTAR, Production No. 3369) was added 50 μl of 60 mM bicarbonate buffer (pH 9.6) containing 50 μg/ml of an anti-phosphotyrosine antibody (PY20, purchased from Transduction Laboratory, Production No. P-11120). The plate was incubated at 4° C. overnight.
# Each well of the plate prepared in 2. was washed three times with 200 μl of PBS, and supplied with 150 μl of 3% BSA/PBS, followed by incubating at room temperature for 2 hrs. Each well was washed three times with 200 μl of PBS, and supplied with 50 μl of the above cell extract, followed by incubating at 4° C. overnight. After the incubation, each well was washed three times with 250 μl of a washing solution (0.1% BSA, 20 mM Tris-HCl (pH 7.6), 137 mM NaCl, and 0.05% Tween-20), and supplied with 70 μl of anti-HGFR antibody (h-Met(C-12), purchased from Santa Cruz, Production No. sc-10) 2,000-fold diluted with a reaction solution (1% BSA, 20 mM Tris-HCl (pH 7.6), 137 mM NaCl and 0.05% Tween-20), followed by incubating at room temperature for 1 hr. The well was washed three times with 250 μl of the washing solution, and supplied with 70 μl of peroxidase-labelled anti-rabbit IgG antibody (purchased from Cell Signaling, Production No. 7074) 2,000-fold diluted with the reaction solution, followed by incubating at room temperature for 1 hr. Each well was washed three times with 250 μl of the washing solution, and supplied with 70 μl of TMB Membrane Peroxidase Substrate (purchased from Funakoshi, Production No. 50-5077-03), followed by incubating at room temperature for 10 min. Each well was supplied with 70 μl of 1 M phosphoric acid, and using the Plate Reader MTP-500 (Corona Electric), the absorbance of the well was instantly determined at a measurement wavelength of 450 nm. While defining the absorbance of a well supplied with the cell extract having no test substance as 100% HGFR autophosphorylation activity, and the absorbance of a well supplied with 50 μl of the lysis buffer as 0% HGFR autophosphorylation activity, the HGFR autophosphorylation activity (%) was calculated for each well.
# T1 sequence (P08581 25-1390): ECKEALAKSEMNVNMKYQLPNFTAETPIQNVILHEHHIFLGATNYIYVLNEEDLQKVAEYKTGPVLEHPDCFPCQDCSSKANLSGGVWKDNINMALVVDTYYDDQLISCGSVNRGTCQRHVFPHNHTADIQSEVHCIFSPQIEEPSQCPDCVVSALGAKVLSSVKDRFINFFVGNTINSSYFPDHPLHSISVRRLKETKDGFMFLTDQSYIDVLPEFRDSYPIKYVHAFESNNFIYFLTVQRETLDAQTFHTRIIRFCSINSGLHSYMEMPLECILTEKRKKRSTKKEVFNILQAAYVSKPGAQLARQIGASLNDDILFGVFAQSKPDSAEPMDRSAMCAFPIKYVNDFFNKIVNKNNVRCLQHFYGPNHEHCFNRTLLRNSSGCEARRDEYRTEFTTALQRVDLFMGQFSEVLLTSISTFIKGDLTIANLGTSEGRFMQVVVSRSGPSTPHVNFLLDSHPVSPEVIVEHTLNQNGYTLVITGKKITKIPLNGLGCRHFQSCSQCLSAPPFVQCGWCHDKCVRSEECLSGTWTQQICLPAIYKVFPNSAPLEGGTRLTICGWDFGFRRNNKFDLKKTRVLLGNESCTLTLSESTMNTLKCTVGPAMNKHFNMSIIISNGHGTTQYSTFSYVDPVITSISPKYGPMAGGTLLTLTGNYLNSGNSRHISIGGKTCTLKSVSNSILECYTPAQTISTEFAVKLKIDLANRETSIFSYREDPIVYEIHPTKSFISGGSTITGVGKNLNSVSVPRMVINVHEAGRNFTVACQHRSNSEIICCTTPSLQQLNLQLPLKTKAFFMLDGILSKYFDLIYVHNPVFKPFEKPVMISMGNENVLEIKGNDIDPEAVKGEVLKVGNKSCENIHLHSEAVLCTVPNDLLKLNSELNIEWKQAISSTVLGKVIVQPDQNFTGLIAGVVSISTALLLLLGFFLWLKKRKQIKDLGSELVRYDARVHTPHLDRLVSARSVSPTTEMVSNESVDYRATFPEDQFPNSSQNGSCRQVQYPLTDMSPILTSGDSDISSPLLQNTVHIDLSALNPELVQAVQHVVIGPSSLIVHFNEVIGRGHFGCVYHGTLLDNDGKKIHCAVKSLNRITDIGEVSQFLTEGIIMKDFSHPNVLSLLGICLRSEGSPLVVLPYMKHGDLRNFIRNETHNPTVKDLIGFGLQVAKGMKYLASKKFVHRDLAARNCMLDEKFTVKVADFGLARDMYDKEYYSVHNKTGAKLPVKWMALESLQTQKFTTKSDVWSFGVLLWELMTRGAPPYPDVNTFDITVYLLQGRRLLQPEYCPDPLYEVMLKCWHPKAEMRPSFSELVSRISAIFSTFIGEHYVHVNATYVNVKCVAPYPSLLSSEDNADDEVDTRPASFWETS
row,SMILES,IC50 [nM]
1,"O=C(Nc1cc(Oc2ccc(NC(=O)C3(C(=O)Nc4ccc(F)cc4)CC3)c(F)c2)ccn1)N1CC(O)C1 [Example 72, N-{2-Fluoro-4-[(2-{[(3-hydroxyazetidin-1-yl)carbonyl]amino}pyridin-4-yl)oxy]phenyl}-N′-(4-fluorophenyl)cyclopropane-1,1-dicarboxamide]",10
2,"CN1CCN(C(=O)Nc2cc(Oc3cc(F)c(NC(=O)C4(C(=O)Nc5ccc(F)cc5)CC4)cc3F)ccn2)CC1 [Example 104, N-{2,5-Difluoro-4-[(2-{[(4-methylpiperazin-1-yl)carbonyl]amino}pyridin-4-yl]oxy}phenyl)-N′-(4-fluorophenyl)cyclopropane-1,1-dicarboxamide]",15
3,"O=C(Nc1cc(Oc2ccc(NC(=O)C3(C(=O)Nc4ccc(F)cc4)CC3)cc2F)ccn1)N1CCC(N2CCCC2)CC1 [Example 10, N-(4-Fluorophenyl)-N′-{3-fluoro-4-[(2-{[(4-pyrrolidin-1-ylpiperidin-1-yl)carbonyl]amino}pyridin-4-yl)oxy]phenyl}cyclopropane-1,1-dicarboxamide]",21
4,"O=C(Nc1cc(Oc2ccc(NC(=O)C3(C(=O)Nc4ccc(F)cc4)CC3)c(F)c2)ccn1)N1CCC(CN2CCC2)CC1 [Example 37, N-(4-{[2-({[4-(Azetidin-1-ylmethyl)piperidin-1-yl]carbonyl}amino)pyridin-4-yl]oxy}-2-fluorophenyl)-N′-(4-fluorophenyl)cyclopropane-1,1-dicarboxamide]",6.6
5,"O=C(Nc1cc(Oc2ccc(NC(=O)C3(C(=O)Nc4ccc(F)cc4)CC3)cc2F)ccn1)N1CCC(CN2CCC2)CC1 [Example 26, N-(4-{[2-({[4-(Azetidin-1-ylmethyl)piperidin-1-yl]carbonyl}amino)pyridin-4-yl]oxy}-3-fluorophenyl)-N′-(4-fluorophenyl)cyclopropane-1,1-dicarboxamide]",8.4
6,"O=C(Nc1cc(Oc2ccc(NC(=O)C3(C(=O)Nc4ccc(F)cc4)CC3)cc2)ccn1)N1CCN(CCN2CCC2)CC1 [Example 28, N-(4-{[2-({[4-(2-Azetidin-1-ylethyl)piperazin-1-yl]carbonyl}amino)pyridin-4-yl]oxy}phenyl)-N′-(4-fluorophenyl)cyclopropane-1,1-dicarboxamide]",43
7,"O=C(Nc1cc(Oc2ccc(NC(=O)C3(C(=O)Nc4ccc(F)cc4)CC3)c(F)c2)ccn1)N1CCC(CN2CCCC2)CC1 [Example 40, N-(4-Fluorophenyl)-N′-(2-fluoro-4-{[2-({[4-(pyrrolidin-1-ylmethyl)piperidin-1-yl]carbonyl}amino)pyridin-4-yl]oxy}phenyl)cyclopropane-1,1-dicarboxamide]",8
8,"O=C(Nc1cc(Oc2ccc(NC(=O)C3(C(=O)Nc4ccc(F)cc4)CC3)cc2F)ccn1)N1CC(O)C1 [Example 80, N-{3-Fluoro-4-[(2-{[(3-hydroxyazetidin-1-yl)carbonyl]amino}pyridin-4-yl)oxy]phenyl}-N′-(4-fluorophenyl)cyclopropane-1,1-dicarboxamide]",14
9,"O=C(Nc1cc(Oc2ccc(NC(=O)C3(C(=O)Nc4ccc(F)cc4)CC3)cc2F)ncn1)N1CCOCC1 [Example 35, N-[3-Fluoro-4-({6-{(morpholin-4-ylcarbonyl)amino}pyrimidin-4-yl}oxy)phenyl]-N′-(4-fluorophenyl)cyclopropane-1,1-dicarboxamide]",120
10,"CN(C)[C@@H]1CCN(C(=O)Nc2cc(Oc3ccc(NC(=O)C4(C(=O)Nc5ccc(F)cc5)CC4)c(F)c3)ccn2)C1 [Example 47, N-(4-{[2-({[(3R)-3-(Dimethylamino)pyrrolidin-1-yl]carbonyl}amino)pyridin-4-yl]oxy}-2-fluorophenyl)-N′-(4-fluorophenyl)cyclopropane-1,1-dicarboxamide]",30
11,"O=C(Nc1cc(Oc2ccc(NC(=O)C3(C(=O)Nc4ccc(F)cc4)CC3)cc2)ccn1)N1CCC(N2CCC2)CC1 [Example 13, N-{4-[(2-{[(4-Azetidin-1-ylpiperidin-1-yl)carbonyl]amino}pyridin-4-yl)oxy]phenyl}-N′-(4-fluorophenyl)cyclopropane-1,1-dicarboxamide]",37
12,COC1CN(C(=O)Nc2cc(Oc3ccc(NC(=O)C4(C(=O)Nc5ccc(F)cc5)CC4)cc3F)ccn2)C1 [Example 79],16
13,"CN(C)CC1CN(C(=O)Nc2cc(Oc3ccc(NC(=O)C4(C(=O)Nc5ccc(F)cc5)CC4)c(F)c3F)ccn2)C1 [Example 107, N-[4-({2-[({3-[(Dimethylamino)methyl]azetidine-1-yl}carbonyl)amino]pyridin-4-yl}oxy)-2,3-difluorophenyl]-N′-(4-fluorophenyl)cyclopropane-1,1-dicarboxamide]",36
14,"CCN1CCC(N(C)C(=O)Nc2cc(Oc3ccc(NC(=O)C4(C(=O)Nc5ccccc5)CC4)c(F)c3)ccn2)CC1 [Example 60, N-(4-{[2-({[(1-Ethylpiperidin-4-yl)(methyl)amino]carbonyl}amino)pyridin-4-yl]oxy}-2-fluorophenyl)-N′-phenylcyclopropane-1′-dicarboxamide]",8
15,"CN1CCN(C2CCN(C(=O)Nc3cc(Oc4ccc(NC(=O)C5(C(=O)Nc6ccccc6)CC5)c(F)c4)ccn3)CC2)CC1 [Example 54, N-(2-Fluoro-4-{[2-({[4-(4-methylpiperazin-1-yl)piperidin-1-yl]carbonyl}amino)pyridin-4-yl]oxy}phenyl)-N′-phenylcyclopropane-1,1-dicarboxamide]",24
16,"CN(C)C1CCN(C(=O)Nc2cc(Oc3cc(F)c(NC(=O)C4(C(=O)Nc5ccc(F)cc5)CC4)cc3F)ccn2)CC1 [Example 103, N-(4-{[2-({[4-(Dimethylamino)piperidin-1-yl]carbonyl}amino)pyridin-4-yl]oxy}-2,5-difluorophenyl)-N′-(4-fluorophenyl)cyclopropane-1,1-dicarboxamide]",12
17,"CN(C)CCN1CCN(C(=O)Nc2cc(Oc3ccc(NC(=O)C4(C(=O)Nc5ccc(F)cc5)CC4)cc3)ccn2)CC1 [Example 30, N-[4-({2-[({4-[2-(Dimethylamino)ethyl]piperazin-1-yl}carbonyl)amino]pyridin-4-yl}oxy)phenyl]-N′-(4-fluorophenyl)cyclopropane-1,1-dicarboxamide]",12
18,"O=C(Nc1cc(Oc2ccc(NC(=O)C3(C(=O)Nc4ccc(F)cc4)CC3)cc2F)ccn1)N1CCOCC1 [Example 67, N-[3-Fluoro-4-({2-[(morpholin-4-ylcarbonyl)amino]pyridin-4-yl}oxy)phenyl]-N′-(4-fluorophenyl)-cyclopropane-1,1-dicarboxamide]",10
19,"CN(C)[C@H]1CCN(C(=O)Nc2cc(Oc3ccc(NC(=O)C4(C(=O)Nc5ccc(F)cc5)CC4)cc3F)ccn2)C1 [Example 24, N-(4-{[2-({[(3S)-3-(Dimethylamino)pyrrolidin-1-yl]carbonyl}amino)pyridin-4-yl]oxy}-3-fluorophenyl)-N′-(4-fluorophenyl)cyclopropane-1,1-dicarboxamide]",27
20,"CN(C)C1CN(C(=O)Nc2cc(Oc3ccc(NC(=O)C4(C(=O)Nc5ccc(F)cc5)CC4)c(F)c3)ccn2)C1 [Example 76, N-(4-{[2-({[3-(Dimethylamino)azetidin-1-yl]carbonyl}amino)pyridin-4-yl]oxy}-2-fluorophenyl)-N′-(4-fluorophenyl)cyclopropane-1,1-dicarboxamide]",30
21,"CN(C)[C@H]1CCN(C(=O)Nc2cc(Oc3ccc(NC(=O)C4(C(=O)Nc5ccccc5)CC4)c(F)c3)ccn2)C1 [Example 58, N-(4-{[2-({[(3S)-3-(Dimethylamino)pyrrolidin-1-yl]carbonyl}amino)pyridin-4-yl]oxy}-2-fluorophenyl)-N′-phenylcyclopropane-1,1-dicarboxamide]",17
22,"O=C(Nc1cc(Oc2ccc(NC(=O)C3(C(=O)Nc4ccc(F)cc4)CC3)c(F)c2)ccn1)N1CC(N2CCC2)C1 [Example 73, N-[4-({2-[(1,3′-Biazetidin-1′-ylcarbonyl)amino]pyridin-4-yl}oxy)-2-fluorophenyl]-N′-(4-fluorophenyl)cyclopropane-1,1-dicarboxamide]",8
